The values below come from PubChem BioAssay (NCI).

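Exposure lasted 48 hours, with cells grown in 96-well plates and compounds tested at five concentrations. Abbreviation: GI50, concentration required for 50% inhibition of growth. TGI denotes the concentration required for complete inhibition of growth.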 Bounds are passed on as bounds.

Test systems include MALME-3M melanoma; NCI-H522 lung; HCT-15 colon; K-562 leukemia; OVCAR-8 ovarian; SF-268 CNS; TK-10 renal; CCRF-CEM leukemia; SK-MEL-2 melanoma; PC-3 prostate.
What all share (experiment): growth of human tumour cells (NCI), 48 h

In the case of `Nc1ccccc1C(=O)C(Br)C(Br)c1ccc2c(c1)OCO2` (centres undefined), the TGI in the assay with MALME-3M melanoma was 39 µM; with NCI-H522 lung, 48.1 µM; with HCT-15 colon, 48.1 µM; in the assay with K-562 leukemia, above 100 µM; with OVCAR-8 ovarian, 91.5 µM; with SF-268 CNS, 91.5 µM. In addition, the TGI with TK-10 renal was 72.7 µM; with CCRF-CEM leukemia it was above 100 µM; with SK-MEL-2 melanoma, 35.2 µM.

Turning to `COc1ccc(-n2nc(C)c3c(Nc4ccc(NC(=O)Nc5ccc(Cl)c(C(F)(F)F)c5)cc4)ncnc32)cc1`, the GI50 with MALME-3M melanoma is 1.54 µM; with PC-3 prostate it was 1.16 µM; in the assay with NCI-H522 lung, 1.71 µM; in the assay on HCT-15 colon, 1.42 µM; in the assay on OVCAR-8 ovarian, 2.84 µM; in the assay on SF-268 CNS, 2.61 µM. Moreover, the values for the GI50 in the assay with TK-10 renal, with CCRF-CEM leukemia and in the assay with SK-MEL-2 melanoma were 2.88 µM, 2.2 µM and 2.23 µM, respectively. The TGI stood at 3.35 µM in the assay on MALME-3M melanoma; 3.95 µM in the assay on PC-3 prostate; 3.65 µM in the assay with NCI-H522 lung; 3.09 µM with HCT-15 colon; 11.7 µM with OVCAR-8 ovarian; 7.99 µM in the assay with SF-268 CNS. Besides, the TGI was 12.3 µM with TK-10 renal, above 100 µM with CCRF-CEM leukemia and 4.43 µM in the assay with SK-MEL-2 melanoma.

On to `Cc1cc(C)nc(NS(=O)(=O)c2ccc(NC(=O)c3cccc4c(NNc5ccc(S(=O)(=O)N=C(N)N)cc5)c5ccccc5nc34)cc2)n1`, for which the TGI with MALME-3M melanoma, with PC-3 prostate, in the assay with NCI-H522 lung, in the assay on HCT-15 colon, with K-562 leukemia and in the assay on OVCAR-8 ovarian was above 50 µM throughout. Further, the TGI in the assay on SF-268 CNS, with TK-10 renal and in the assay on CCRF-CEM leukemia was above 50 µM each time.

As for `C/C(=N\Nc1nc2ccccc2s1)c1ccc2ccccc2n1`, the TGI in the assay on MALME-3M melanoma, in the assay with PC-3 prostate, with NCI-H522 lung, in the assay on HCT-15 colon, with OVCAR-8 ovarian and in the assay on SF-268 CNS was above 100 µM in each case. Besides, the TGI in the assay with TK-10 renal is above 100 µM; in the assay on CCRF-CEM leukemia it was 63.7 µM; with SK-MEL-2 melanoma it was above 100 µM.

For the compound `CN1N=C(c2ccncc2)OC1c1ccccc1F` (centres undefined), the TGI with PC-3 prostate, with NCI-H522 lung, with HCT-15 colon, with K-562 leukemia, in the assay with OVCAR-8 ovarian and in the assay on SF-268 CNS was above 100 µM each time. The TGI with TK-10 renal, with CCRF-CEM leukemia and in the assay on SK-MEL-2 melanoma was above 100 µM in each case.

Regarding `c1ccc2c(c1)CCCC/C2=N/OCC1CO1` (centres undefined), the TGI with MALME-3M melanoma, in the assay with HCT-15 colon, with K-562 leukemia, in the assay on OVCAR-8 ovarian, in the assay with SF-268 CNS and with TK-10 renal was above 100 µM in each case. The TGI in the assay on CCRF-CEM leukemia and in the assay with SK-MEL-2 melanoma was above 100 µM throughout.

Consider `CCN1C(=O)C(=C/C=C/c2ccc(N(CC)CC)cc2)C(=O)N(CC)C1=S`, for which the TGI in the assay on PC-3 prostate, in the assay with HCT-15 colon, in the assay with K-562 leukemia, in the assay on OVCAR-8 ovarian, in the assay on SF-268 CNS and with TK-10 renal was above 100 µM each time. Further, the TGI in the assay with CCRF-CEM leukemia and with SK-MEL-2 melanoma was above 100 µM throughout.

`COc1cc(C2c3cc4c(cc3[C@@H](Nc3ccc5c(c3)OCO5)C3COC(=O)[C@H]23)OCO4)cc(OC)c1O` (some centres undefined): the TGI in the assay with MALME-3M melanoma is 10.1 µM; with NCI-H522 lung it was 4.49 µM; in the assay with HCT-15 colon, 2.15 µM; with K-562 leukemia it was 9.74 µM; in the assay with OVCAR-8 ovarian, above 20.5 µM; in the assay with SF-268 CNS, 30 µM. Besides, the TGI with CCRF-CEM leukemia amounted to 5.37 µM; in the assay on SK-MEL-2 melanoma it was 5.96 µM.

As to `O=C(CC(C(=O)c1ccco1)c1ccco1)c1ccco1` (centres undefined), the TGI in the assay with NCI-H522 lung, in the assay with K-562 leukemia, in the assay on OVCAR-8 ovarian, in the assay on SF-268 CNS, with TK-10 renal and with CCRF-CEM leukemia was above 100 µM in each case.

In the case of `COC(=O)[C@H](Cc1ccccc1)NC(=O)N(CCC#N)CCN(C(=O)N[C@@H](Cc1ccccc1)C(=O)OC)c1ccccc1`, the TGI with PC-3 prostate was above 100 µM; in the assay with HCT-15 colon it was above 100 µM; in the assay on OVCAR-8 ovarian, above 100 µM; in the assay with SF-268 CNS, 45.6 µM; in the assay on TK-10 renal, 41.6 µM; with CCRF-CEM leukemia it was 87 µM. Besides, in the assay on SK-MEL-2 melanoma, the TGI amounted to 39.3 µM.

As to `O=[N+]([O-])/C(Cl)=C(\NCCN/C(C(Cl)=C(Cl)Cl)=C(/Cl)[N+](=O)[O-])C(Cl)=C(Cl)Cl`, the TGI in the assay with MALME-3M melanoma, with PC-3 prostate, with HCT-15 colon, with K-562 leukemia, with OVCAR-8 ovarian and in the assay on SF-268 CNS was above 100 µM in each case. For the same compound, the TGI in the assay with TK-10 renal and in the assay with CCRF-CEM leukemia was above 100 µM throughout.

In the case of `CC(=O)Oc1c(C)c(C)c2c(c1C)CCC(C)(CC(=O)OCCCCCCCCCCC[P+](c1ccccc1)(c1ccccc1)c1ccccc1)O2` (centres undefined), in the assay with PC-3 prostate, the GI50 is 0.194 µM and the TGI was determined as 0.976 µM. For the same compound, in the assay on NCI-H522 lung, the GI50 is 0.21 µM and the TGI turned out to be 0.666 µM.

On to `Cc1cc(NS(=O)(=O)c2ccc(NC(NC(=O)C(C(F)(F)F)C(F)(F)F)(C(F)(F)F)C(F)(F)F)cc2)no1`, for which the TGI in the assay on MALME-3M melanoma, in the assay with PC-3 prostate, in the assay on HCT-15 colon, in the assay on K-562 leukemia, with OVCAR-8 ovarian and in the assay on SF-268 CNS was above 100 µM in each case. For the same compound, the TGI in the assay with TK-10 renal, in the assay on CCRF-CEM leukemia and in the assay on SK-MEL-2 melanoma was above 100 µM throughout.

As to `COC(=O)N1N=C(c2ccccc2)C1c1ccccc1` (centres undefined), the TGI was above 100 µM with MALME-3M melanoma; above 100 µM with PC-3 prostate; above 100 µM in the assay with HCT-15 colon; 72.7 µM with K-562 leukemia; 94 µM in the assay on OVCAR-8 ovarian; above 100 µM with SF-268 CNS. The TGI with TK-10 renal, in the assay with CCRF-CEM leukemia and with SK-MEL-2 melanoma was above 100 µM in each case.

As to `Nc1nc(Nc2ccccc2)sc1C(=O)c1ccco1`, the TGI with MALME-3M melanoma is 57.1 µM; in the assay on PC-3 prostate, above 100 µM; in the assay on HCT-15 colon, 50.9 µM; in the assay with K-562 leukemia, 57.7 µM; with SF-268 CNS it was above 100 µM; with TK-10 renal, 35.9 µM. Further, the TGI in the assay with CCRF-CEM leukemia amounted to 17.1 µM; in the assay with SK-MEL-2 melanoma it was 36.7 µM.
